Laboratory results published in the METLIN SMRT retention time set (Domingo-Almenara et al. 2019).

Experiment: gradient 5% acetonitrile 3 min, to 50% in 2 min, to 85% in 15 min, held 3 min, 100 µL/min
Conditions: column: Zorbax Extend-C18 2.1 x 50 mm; eluents: water / acetonitrile, 0.1% formic acid
Procedure, shortened: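 Pure standards were analyzed in mixtures of ~100 molecules using HPLC coupled to a quadrupole time-of-flight mass spectrometer, in both positive and negative ionization mode. Separation used a Zorbax Extend-C18 column (2.1 × 50 mm, 1.8 μm) at 100 μL/min, with water and acetonitrile each containing 0.1% formic acid. Dead and dwell volumes were 40 μL and 900 μL, and data were collected over 3 months. Retention time was read from computationally picked adduct peaks, each inspected manually.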

SMILES | RP-LC retention time
CCOc1ccc(-n2c(=O)c3sccc3n(Cc3nc(-c4ccccc4)no3)c2=O)cc1 | 1010 s
CN(c1ccccc1CNc1nc(Nc2ccc3c(c2)CC(=O)N3)ncc1C(F)(F)F)S(C)(=O)=O | 713 s
O=C(CN1CCN(Cc2ccc(F)cc2)C1=O)NCc1cccc(F)c1 | 790 s
O=C(CN1CCN(Cc2ccccc2)C1=O)N1CCN(C2CCCCC2)CC1 | 601 s
CSc1ccccc1C(=O)NCC1(c2ccc(F)cc2)CC1 | 875 s
CCC1CN2C=NC(N3CCN(C(=O)Nc4ccc(OC)cc4C)CC3)=CC2=N1 (centres undefined) | 612 s
COc1ccc(-c2ccc(=O)n(Cc3nc(-c4cccc(Br)c4)no3)n2)cc1 | 997 s
O=C(Nc1cc(F)ccc1F)N1CCCC(Cn2c(C3CC3)nc3cccnc32)C1 (centres undefined) | 689 s
CN(C)CC1CCC/C(=C\c2ccc(OC(=O)/C=C/c3ccccc3)cc2)C1=O (centres undefined) | 796 s
Cc1cc(NC(=O)c2nc3ccccc3s2)sn1 | 809 s
COc1cccc(-c2nc(Cc3nc(-c4ccccc4OC)oc3C)no2)c1 | 1030 s
COC(=O)c1cc(OCC(=O)Nc2cccc(Cl)c2)c2ccccc2n1 | 821 s
CCc1ccc(NC(=O)NCC(c2cccnc2)c2c[nH]c3ccccc23)cc1 (centres undefined) | 710 s
O=C(CC1CCN(C(=O)C2(c3ccccc3)CC2)C1)NC1CC1 (centres undefined) | 666 s
CCCn1cc(S(=O)(=O)Nc2cccc(OC)c2)c2cccnc21 | 840 s
Fc1ccccc1-c1nnc2sc(-c3ccc4ccccc4n3)nn12 | 1080 s
Cn1cnc(S(=O)(=O)N2CCC(Cc3nncn3Cc3ccccc3)C2)c1 (centres undefined) | 614 s
CC1(C)CC(NC(=O)COc2ccc(Cl)cc2Br)CC(C)(C)N1 | 661 s
Cc1ccc(-n2nc(N3CCCC(C(=O)NCc4ccc5c(c4)OCO5)C3)ccc2=O)cc1Cl (centres undefined) | 875 s
COCCCNC(=O)CC1CCN(C(=O)c2[nH]c(C)c(C)c2C)CC1 | 667 s
COc1ccc(CCNC(=O)C2CCCN(S(=O)(=O)c3ccc(OC)c(Cl)c3)C2)cc1 (centres undefined) | 938 s
COc1ccccc1C(=O)N1CCC2(CC1)c1nccn1-c1ccccc1CN2CC(C)C | 692 s
O=C(c1cccs1)N1CCC(Cn2c(C(F)(F)F)nc3ccccc32)CC1 | 819 s
CC(=O)c1cccc(NC(=O)c2cccc3ccccc23)c1 | 840 s

SMILES | RP-LC retention time
CCOC(=O)c1noc2ncnc(N3CCCCCC3)c12 | 954 s
Cc1cccc(C)c1NC(=O)NC1CCN(c2nc3ccccc3n(C)c2=O)CC1 | 838 s
CN(Cc1ccco1)C(=O)C1CCCN(c2ncnc3c2nc2n3CCCCC2)C1 (centres undefined) | 738 s
COc1ccc(CC(=O)NCCc2ccc(N(C)C)cc2)cc1 | 571 s
O=C(c1ccc2c(=O)n3c(nc2c1)CCCC3)N1CCN(c2ccccn2)CC1 | 564 s
COc1ccc(F)cc1S(=O)(=O)N1CCN(C2CCN(C)C2=O)CC1 (centres undefined) | 550 s
CCn1cc(CN2CCC(C(=O)NCc3ccco3)CC2)c2ccccc21 | 658 s
CCn1cc(-c2ccc(OC)cc2)cc1C(=O)NCCN1CCN(C)CC1 | 623 s
O=C(Nc1cccnc1)C1(CCO)CCN(c2ncccn2)C1 (centres undefined) | 529 s
O=C(NCc1ccccn1)C1CCN(c2cnc(N3CCCC3)nc2)CC1 | 547 s
CC(NC(=O)Cc1nnc2cc(-c3nc(C4CC4)no3)ccn12)c1ccc(F)cc1 (centres undefined) | 780 s
CN1C(=O)C2CCCCN2c2ccc(C(=O)N3CCN(Cc4ccc5c(c4)OCO5)CC3)cc21 (centres undefined) | 638 s
CCN1C(=O)COc2cc(-c3noc(C(=O)N4CCN(c5cccc(Cl)c5)CC4)n3)ccc21 | 1140 s
O=C(NC1CC1)c1cc(-c2cccs2)on1 | 788 s
O=C(Nc1cccc(-c2nnc3n2CCCC3)c1)c1ccc2c(c1)OCO2 | 679 s
Cc1nn(-c2ccccc2)c(C)c1S(=O)(=O)N1CCC(C(=O)Nc2cccc(Cl)c2C)CC1 | 1000 s
Cc1ccc(CN2C[C@@H]3C(=O)N(Cc4ccc5c(c4)OCO5)C(=O)[C@@H]3C2)cc1C | 691 s
CCOc1nccnc1NC1CCN(C(=O)c2ccco2)CC1 | 585 s
COc1ccc(-c2ncc3c(n2)CCN(C(=O)c2cc(F)ccc2Cl)C3)cc1 | 966 s
O=C(COc1ccc(F)cc1)N1[C@H]2CC[C@@H]1c1cnc(-c3ccc(F)cc3)nc1C2 | 760 s
CCCCN(C)C(=O)c1c(C)oc2ccn(Cc3ccc(F)cc3)c(=O)c12 | 868 s
O=C(NCc1cccc(Br)c1)c1ccc2ncnc(N3CCCC3)c2c1 | 679 s
O=c1cccnn1CCNS(=O)(=O)c1ccc(OC(F)(F)F)cc1 | 711 s

The remaining lines, values ahead:

RP-LC retention time | SMILES
648 s | O=C(c1ccc(/C=C/c2n[nH]c3ccccc23)cc1)N1CCNCC1
613 s | COc1ccc(CCNC(=O)Cn2nc3n(c2=O)CCCC3)cc1OC
800 s | Cc1cccc(CN2CC(=O)N(c3ccccc3)[C@@H]3CS(=O)(=O)C[C@@H]32)c1
750 s | CCN(CC)c1ccc(NS(=O)(=O)c2cc(-c3nc(C)cs3)sc2C)c(C)c1
922 s | CCSc1nnc(-c2nn(C)c3c2CN(S(=O)(=O)c2cccc(F)c2)CC3)n1CC
793 s | Cc1cc2nnc(SCC(=O)c3ccc4c(c3)OCO4)n2c2ccccc12
1070 s | CCCNC(=O)c1cnn(-c2ccc(-c3nc(C(C)(C)C)no3)cn2)c1C
730 s | COCCn1nc2n(c1=O)CCN(C(=O)C1(c3ccccc3)CCCC1)CC2
1000 s | Cc1ccc(N2CCN(c3nccn4c(=O)n(CC(=O)Nc5ccc(C)c(C)c5)nc34)CC2)cc1
647 s | COc1ccc2c(c1)c(N1CCCC1=O)c(C(=O)NCCCN1CC(C)CC(C)C1)n2C (centres undefined)
721 s | O=C(NCC1CCCO1)C1CCN(c2ccc(=O)n(-c3cccc(Cl)c3)n2)CC1 (centres undefined)
1190 s | Cc1ccc(-n2ncc3c(=O)n(Cc4nc(-c5ccccc5)no4)cnc32)cc1Cl
775 s | CC(C)NC(=O)N1CCC(c2noc(-c3ccccc3)n2)C1 (centres undefined)
680 s | O=C(NCc1ccc(F)cc1)c1cccc(-c2ccc(N3CCCC3)nc2)c1
560 s | O=C(NCCCN1CCCCC1)C1CCCN(c2cnc3nccnc3c2)C1 (centres undefined)
815 s | COC[C@@H]1CN(C(=O)c2cc(C)oc2C)C[C@H]1c1nc(C2CC2)no1
782 s | Cc1ccc(N2CCN(CC(O)COc3cccc(C)c3)CC2)cc1 (centres undefined)
776 s | CCOC(=O)COc1cc(-c2ccc(C)cc2)nc2ccc(NC(=O)C3CC3)cc12
919 s | CC1CCN(S(=O)(=O)c2ccc3c(ccc(=O)n3CC(=O)NC3CCCc4ccccc43)c2)CC1 (centres undefined)
963 s | CCOC(=O)c1c(-c2ccccc2)csc1NC(=O)c1ccccc1C(=O)O
954 s | Cc1ccccc1NC(=O)CN(C)S(=O)(=O)c1cc(C(=O)N2CCC(C)CC2)n(C)c1

RP-LC retention time | SMILES
1000 s | CCc1cccc(NC(=O)Cn2nc(N3CCCC3)c3ccccc3c2=O)c1
629 s | O=C(CCn1c(N2CCCCC2)nc2ccsc2c1=O)N1CCN(c2ccccn2)CC1
1280 s | COc1cccc(-c2nc(C3CCN(S(=O)(=O)c4cc(C)c(C)cc4C)CC3)no2)c1
1120 s | COC(=O)c1ccc(C(=O)Nc2nc3c(s2)CCc2ccccc2-3)cc1
1280 s | Cc1ccc(Cl)cc1NC(=O)CSc1cc(N2CCN(c3ccccc3F)CC2)ncn1
714 s | COCc1c(C(=O)O)nnn1Cc1ccccc1C
640 s | O=C(c1ccsc1)N1CCCn2cc(-c3ccccc3)nc21
716 s | O=C(NCCC1CCN(C(=O)Nc2ccc(F)cc2)CC1)c1ccoc1
590 s | O=C(CN1CCOCC1)N1CCCCC1c1nc(C2CC2)no1 (centres undefined)
631 s | O=C(c1ccco1)N1CCN(C(=O)C2CCN(c3nc4ccccc4[nH]c3=O)CC2)CC1
1110 s | COc1cc(C(=O)Nc2nc3c(s2)CCc2ccccc2-3)cc(OC)c1OC
740 s | CCc1ccccc1S(=O)(=O)N1C[C@H](F)C[C@@H]1C(=O)N1CCOCC1
706 s | Nc1cc(C2CCN(C(=O)Nc3ccccc3Br)CC2)no1
832 s | COC(=O)C1=CN(c2cc(F)ccc2C)c2ccccc2S1(=O)=O
993 s | Cc1ccc(C(=O)Nc2cc(-c3cccs3)no2)cc1
751 s | Cc1ccc2ncn(C3CCN(C(=O)Nc4ccccc4)CC3)c(=O)c2c1
710 s | CN1C(=O)C(=C2CCCC2)c2cc(S(=O)(=O)N3CCN(c4ccccn4)CC3)ccc21
597 s | CCOc1ccccc1C(=O)NCCS(=O)(=O)N1CCN(c2ccccn2)CC1
943 s | O=C(c1ccoc1)N1CCN(S(=O)(=O)c2cc(-c3noc(C4CCC4)n3)cs2)CC1
1110 s | CCOc1cccc(C2c3[nH]c4ccccc4c3CCN2C(=O)c2cccs2)c1 (centres undefined)
677 s | Cc1ccc2nc(CN3CCN(C(=O)NCCc4ccccc4)CC3)oc2c1
